Tests used:
giant foxtail = assay: Test B pre/postemergence giant foxtail; type: in vivo, Setaria faberii
How it was run: (§1)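 Herbicidal effect was estimated by eye on a ten-point control scale after plants spent twelve to sixteen days in a greenhouse following soil or foliar treatment. Foliar sprays targeted plants at one to four leaves; all doses were formulated in a non-phytotoxic solvent with surfactant.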

rice = assay: Test B flood test rice; type: in vivo, Oryza sativa
How it was run: (§2)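 Flood test on plants grown to the 2-leaf stage; treated plants kept in greenhouse twelve to sixteen days, then visually rated against controls on a 0 (no effect) to 10 (complete control) scale.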

smallflower flatsedge = assay: Test B flood test smallflower flatsedge; type: in vivo, Cyperus difformis
How it was run: as §2

cocklebur = assay: Test B pre/postemergence cocklebur; type: in vivo, Xanthium strumarium
How it was run: as §1

soybean = assay: Test B pre/postemergence soybean; type: in vivo, Glycine max
How it was run: as §1

sugar beet = assay: Test B pre/postemergence sugar beet; type: in vivo, Beta vulgaris
How it was run: as §1

bamyardgrass = assay: Test B flood test barnyardgrass; type: in vivo, Echinochloa crus-galli
How it was run: as §2

purple nutsedge = assay: Test B pre/postemergence purple nutsedge; type: in vivo, Cyperus rotundus
How it was run: as §1

pigweed = assay: Test B pre/postemergence pigweed; type: in vivo, Amaranthus retroflexus
How it was run: as §1

blackgrass = assay: Test B pre/postemergence blackgrass; type: in vivo, Alopecurus myosuroides
How it was run: as §1

duck salad = assay: Test B flood test duck salad; type: in vivo, Heteranthera limosa
How it was run: as §2

wheat = assay: Test B pre/postemergence wheat; type: in vivo, Triticum aestivum
How it was run: as §1

rape = assay: Test B pre/postemergence rape; type: in vivo, Brassica napus
How it was run: as §1

velvetleaf = assay: Test B pre/postemergence velvetleaf; type: in vivo, Abutilon theophrasti
How it was run: as §1

morningglory = assay: Test B pre/postemergence morningglory; type: in vivo, Ipomoea hederacea
How it was run: as §1

wild oat = assay: Test B pre/postemergence wild oat; type: in vivo, Avena fatua
How it was run: as §1

[1] = Postemergence, Rate 125 g/ha, scale of 0 to 10 where 0 is no effect and 10 is complete control
[2] = Preemergence, Rate 62 g/ha, scale 0 to 10 (0 no effect, 10 complete control)
[3] = Preemergence, Rate 125 g/ha, 0 is no effect, 10 is complete control
[4] = Preemergence, Rate 250 g/ha, scale 0 to 10, 0 is no effect, 10 is complete control
[5] = Preemergence, Rate 500 g/ha, scale 0 to 10 (0 no effect, 10 complete control)
[6] = Rate 62 g/ha, Postemergence, scale of 0 to 10 where 0 is no effect and 10 is complete control
[7] = Rate 250 g/ha, Postemergence, scale 0 to 10, 0 is no effect, 10 is complete control
[8] = Rate 500 g/ha, Postemergence, scale 0 to 10
[9] = Postemergence (flood test species), Rate 125 g/ha, scale of 0 to 10 where 0 is no effect and 10 is complete control
[10] = Rate 62 g/ha, Postemergence section, flood test species, scale of 0 to 10 where 0 is no effect and 10 is complete control
[11] = Rate 250 g/ha, Postemergence (flood test), scale 0 to 10, 0 is no effect, 10 is complete control
[12] = Rate 500 g/ha, listed under Postemergence (flood test species), scale 0 to 10

## CC(C)N(C(=O)n1oc(=O)n(Cc2ccccc2Cl)c1=O)C1=CCCCC1 [Compound 145]
Giant foxtail; [1]
  Giant foxtail plant response rating: 0
Giant foxtail; [2]
  Giant foxtail plant response rating: 0
Giant foxtail; [3]
  Giant foxtail plant response rating (0 to 10 scale): 3
Giant foxtail; [4]
  Giant foxtail plant response rating: 5
Giant foxtail; [5]
  Giant foxtail plant response rating: 8
Giant foxtail; [6]
  Giant foxtail plant response rating: 0
Giant foxtail; [7]
  Plant response rating, Giant foxtail: 2
Giant foxtail; [8]
  Giant foxtail plant response rating: 4
rice; [9]
  Rice plant response rating: 0
rice; [10]
  Rice plant response rating: 0
rice; [11]
  Plant response rating, Rice: 0
rice; [12]
  Rice plant response rating: 0
Smallflower flatsedge; [9]
  S. Flatsedge plant response rating: 0
Smallflower flatsedge; [10]
  S. Flatsedge plant response rating: 0
Smallflower flatsedge; [11]
  Plant response rating, S. Flatsedge: 5
Smallflower flatsedge; [12]
  S. Flatsedge plant response rating: 8
cocklebur; [1]
  Cocklebur plant response rating: 0
cocklebur; [2]
  Cocklebur plant response rating: 0
cocklebur; [3]
  Cocklebur plant response rating (0 to 10 scale): 0
cocklebur; [4]
  Cocklebur plant response rating: 0
cocklebur; [5]
  Cocklebur plant response rating: 0
cocklebur; [6]
  Cocklebur plant response rating: 0
cocklebur; [7]
  Plant response rating, Cocklebur: 0
cocklebur; [8]
  Cocklebur plant response rating: 0
soybean; [1]
  Soybean plant response rating: 3
soybean; [2]
  Soybean plant response rating: 0
soybean; [3]
  Soybean plant response rating (0 to 10 scale): 0
soybean; [4]
  Soybean plant response rating: 0
soybean; [5]
  Soybean plant response rating: 0
soybean; [6]
  Soybean plant response rating: 3
soybean; [7]
  Plant response rating, Soybean: 4
soybean; [8]
  Soybean plant response rating: 5
Sugar beet; [1]
  Sugarbeets plant response rating: 0
Sugar beet; [2]
  Sugarbeets plant response rating: 0
Sugar beet; [3]
  Sugarbeets plant response rating (0 to 10 scale): 0
Sugar beet; [4]
  Sugarbeets plant response rating: 0
Sugar beet; [5]
  Sugarbeets plant response rating: 3
Sugar beet; [6]
  Sugarbeets plant response rating: 0
Sugar beet; [7]
  Plant response rating, Sugarbeets: 0
Sugar beet; [8]
  Sugarbeets plant response rating: 0
bamyardgrass; [9]
  Barnyardgrass plant response rating: 6
bamyardgrass; [10]
  Barnyardgrass plant response rating: 0
bamyardgrass; [11]
  Plant response rating, Barnyardgrass: 7
bamyardgrass; Rate 500 g/ha, listed under Postemergence (flood test species), scale 0 to 10, 0 no effect, 10 complete control
  Barnyardgrass plant response rating: 9
Purple nutsedge; [1]
  Nutsedge plant response rating: 0
Purple nutsedge; [2]
  Nutsedge plant response rating: 0
Purple nutsedge; [3]
  Nutsedge plant response rating (0 to 10 scale): 0
Purple nutsedge; [4]
  Nutsedge plant response rating: 0
Purple nutsedge; [5]
  Nutsedge plant response rating: 0
Purple nutsedge; [6]
  Nutsedge plant response rating: 0
Purple nutsedge; [7]
  Plant response rating, Nutsedge: 0
Purple nutsedge; [8]
  Nutsedge plant response rating: 0
pigweed; [1]
  Redroot pigweed plant response rating: 0
pigweed; [2]
  Redroot pigweed plant response rating: 0
pigweed; [3]
  Redroot pigweed plant response rating (0 to 10 scale): 0
pigweed; [4]
  Redroot pigweed plant response rating: 2
pigweed; [5]
  Redroot pigweed plant response rating: 4
pigweed; [6]
  Redroot pigweed plant response rating: 0
pigweed; [7]
  Plant response rating, Redroot pigweed: 0
pigweed; [8]
  Redroot pigweed plant response rating: 2
blackgrass; [1]
  Blackgrass plant response rating: 1
blackgrass; [2]
  Blackgrass plant response rating: 0
blackgrass; [3]
  Blackgrass plant response rating (0 to 10 scale): 1
blackgrass; [4]
  Blackgrass plant response rating: 4
blackgrass; [5]
  Blackgrass plant response rating: 7
blackgrass; [6]
  Blackgrass plant response rating: 0
blackgrass; [7]
  Plant response rating, Blackgrass: 5
blackgrass; [8]
  Blackgrass plant response rating: 6
Duck salad; [9]
  Ducksalad plant response rating: 0
Duck salad; [10]
  Ducksalad plant response rating: 0
Duck salad; [11]
  Plant response rating, Ducksalad: 0
Duck salad; [12]
  Ducksalad plant response rating: 2
wheat; [1]
  Wheat plant response rating: 0
wheat; [2]
  Wheat plant response rating: 0
wheat; [3]
  Wheat plant response rating (0 to 10 scale): 0
wheat; [4]
  Wheat plant response rating: 0
wheat; [5]
  Wheat plant response rating: 0
wheat; [6]
  Wheat plant response rating: 0
wheat; [7]
  Plant response rating, Wheat: 0
wheat; [8]
  Wheat plant response rating: 0
rape; [1]
  Rape plant response rating: 2
rape; [2]
  Rape plant response rating: 0
rape; [3]
  Rape plant response rating (0 to 10 scale): 0
rape; [4]
  Rape plant response rating: 0
rape; [5]
  Rape plant response rating: 0
rape; [6]
  Rape plant response rating: 0
rape; [7]
  Plant response rating, Rape: 3
rape; [8]
  Rape plant response rating: 3
velvetleaf; [1]
  Velvetleaf plant response rating: 0
velvetleaf; [2]
  Velvetleaf plant response rating: 0
velvetleaf; [3]
  Velvetleaf plant response rating (0 to 10 scale): 0
velvetleaf; [4]
  Velvetleaf plant response rating: 0
velvetleaf; [5]
  Velvetleaf plant response rating: 5
velvetleaf; [6]
  Velvetleaf plant response rating: 0
velvetleaf; [7]
  Plant response rating, Velvetleaf: 0
velvetleaf; [8]
  Velvetleaf plant response rating: 2
morningglory; [1]
  Morningglory plant response rating: 8
morningglory; [2]
  Morningglory plant response rating: 0
morningglory; [3]
  Morningglory plant response rating (0 to 10 scale): 0
morningglory; [4]
  Morningglory plant response rating: 0
morningglory; [5]
  Morningglory plant response rating: 1
morningglory; [6]
  Morningglory plant response rating: 6
morningglory; [7]
  Plant response rating, Morningglory: 10
morningglory; [8]
  Morningglory plant response rating: 10
Wild oat; [1]
  Wild oats plant response rating: 0
Wild oat; [2]
  Wild oats plant response rating: 0
Wild oat; [3]
  Wild oats plant response rating (0 to 10 scale): 0
Wild oat; [4]
  Wild oats plant response rating: 0
Wild oat; [5]
  Wild oats plant response rating: 3
Wild oat; [6]
  Wild oats plant response rating: 0
Wild oat; [7]
  Plant response rating, Wild oats: 0
Wild oat; [8]
  Wild oats plant response rating: 2
